In PubChem BioAssay AID256 (DTP/NCI, 2004):
Where “and” joins values, the source holds several entries; their conditions need not be identical. Equal entries are not always repeated. Toxic doses and inconclusive results are not listed.

System: CD2F1 mice, L1210 leukemia ip, survival T/C
Test: NCI In Vivo Anticancer Drug Screen. Data for tumor model L1210 Leukemia (intraperitoneal) in CD2F1 (CDF1) mice
Details: higher = longer survival
Procedure, shortened: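 Activity against a transplanted murine tumor was judged by comparing the compound group with a vehicle group. The outcome in the treated animals was divided by that in the controls.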

[1] = endpoint: mean survival time, dose: 100.0 mg/kg/injection, schedule: Q01DX001 (ip), vehicle: saline
[2] = endpoint: mean survival time, dose: 200.0 mg/kg/injection, schedule: Q01DX001 (ip), vehicle: saline
[3] = endpoint: mean survival time, dose: 400.0 mg/kg/injection, schedule: Q01DX001 (ip), vehicle: saline
[4] = endpoint: mean survival time, dose: 50.0 mg/kg/injection, schedule: Q04DX002 (ip), vehicle: saline with Tween-80
[5] = endpoint: mean survival time, dose: 100.0 mg/kg/injection, schedule: Q04DX002 (ip), vehicle: saline with Tween-80
[6] = endpoint: mean survival time, dose: 200.0 mg/kg/injection, schedule: Q04DX002 (ip), vehicle: saline with Tween-80
[7] = endpoint: mean survival time, dose: 200.0 mg/kg/injection, schedule: Q04DX003 (ip), vehicle: saline with Tween-80
[8] = endpoint: mean survival time, dose: 100.0 mg/kg/injection, schedule: Q01DX009 (ip), vehicle: saline with Tween-80
[9] = endpoint: mean survival time, dose: 200.0 mg/kg/injection, schedule: Q01DX009 (ip), vehicle: saline with Tween-80
[10] = endpoint: mean survival time, dose: 400.0 mg/kg/injection, schedule: Q01DX009 (ip), vehicle: saline with Tween-80
[11] = endpoint: mean survival time, dose: 100.0 mg/kg/injection, schedule: Q04DX003 (ip), vehicle: saline with Tween-80
[12] = endpoint: mean survival time, dose: 400.0 mg/kg/injection, schedule: Q04DX003 (ip), vehicle: saline with Tween-80
[13] = endpoint: mean survival time, dose: 100.0 mg/kg/injection, schedule: Q01DX001 (ip), vehicle: saline with Tween-80
[14] = endpoint: mean survival time, dose: 200.0 mg/kg/injection, schedule: Q01DX001 (ip), vehicle: saline with Tween-80
[15] = endpoint: mean survival time, dose: 400.0 mg/kg/injection, schedule: Q01DX001 (ip), vehicle: saline with Tween-80

In the case of `O=C(SCCNCCNC1CC2CCC1C2)c1ccccc1` (centres undefined), the T/C (endpoint: mean survival time, dose: 9.4 mg/kg/injection, schedule: Q01DX009 (ip), vehicle: saline with Tween-80) is reported as 98 % of control, the T/C (endpoint: mean survival time, dose: 9.4 mg/kg/injection, schedule: Q04DX003 (ip), vehicle: saline with Tween-80) is reported as 95 % of control and the T/C (endpoint: mean survival time, dose: 18.8 mg/kg/injection, schedule: Q01DX001 (ip), vehicle: saline) is reported as 97 % of control. For the same compound, the T/C (endpoint: mean survival time, dose: 18.8 mg/kg/injection, schedule: Q01DX009 (ip), vehicle: saline with Tween-80) was 97 % of control, the T/C (endpoint: mean survival time, dose: 18.8 mg/kg/injection, schedule: Q04DX003 (ip), vehicle: saline with Tween-80) was 92 % of control and the T/C (endpoint: mean survival time, dose: 37.5 mg/kg/injection, schedule: Q01DX001 (ip), vehicle: saline) was 100 % of control. For the same compound, the T/C (endpoint: mean survival time, dose: 37.5 mg/kg/injection, schedule: Q01DX009 (ip), vehicle: saline with Tween-80) was 97 % of control and the T/C (endpoint: mean survival time, dose: 37.5 mg/kg/injection, schedule: Q04DX003 (ip), vehicle: saline with Tween-80) was 95 % of control.

With `CCCCCCCCCCCCNC(=O)C[n+]1cccc(C(=O)Nc2ccccc2)c1` the T/C (endpoint: mean survival time, dose: 6.25 mg/kg/injection, schedule: Q01DX009 (ip), vehicle: saline with Tween-80) was 97 % of control, the T/C (endpoint: mean survival time, dose: 6.25 mg/kg/injection, schedule: Q04DX003 (ip), vehicle: saline with Tween-80) was 106 % of control and the T/C (endpoint: mean survival time, dose: 12.5 mg/kg/injection, schedule: Q01DX009 (ip), vehicle: saline with Tween-80) was 97 % of control. For the same compound, the T/C (endpoint: mean survival time, dose: 12.5 mg/kg/injection, schedule: Q04DX003 (ip), vehicle: saline with Tween-80) was 100 % of control and the T/C (endpoint: mean survival time, dose: 25.0 mg/kg/injection, schedule: Q04DX003 (ip), vehicle: saline with Tween-80) was 106 % of control.

With `OCC(O)C1OC(OCc2ccccc2)C(O)C(O)C1O` (centres undefined) the T/C [1] was 101 % of control, the T/C [2] was 98 % of control and the T/C [3] was 98 % of control.

For `CCCCC1(C(=O)OCC)SCCCS1`, the T/C [4] was 94 % of control, the T/C [5] was 105 % of control and the T/C [6] was 97 % of control.

With `O=Cc1cc(Br)c(O)c(Br)c1` the T/C (endpoint: mean survival time, dose: 50.0 mg/kg/injection, schedule: Q01DX001 (ip), vehicle: Klucel (hydroxypropylcellulose) (HPC)) was 97 % of control, the T/C (endpoint: mean survival time, dose: 100.0 mg/kg/injection, schedule: Q01DX001 (ip), vehicle: Klucel (hydroxypropylcellulose) (HPC)) was 93 % of control and the T/C (endpoint: mean survival time, dose: 200.0 mg/kg/injection, schedule: Q01DX001 (ip), vehicle: Klucel (hydroxypropylcellulose) (HPC)) was 97 % of control.

`COC1OC(COC(=O)c2ccccc2)C(N(C)C(C)=O)C1OC(=O)c1ccccc1` (centres undefined) was tested, and the T/C (endpoint: mean survival time, dose: 75.0 mg/kg/injection, schedule: Q01DX001 (ip), vehicle: other) was 97 % of control, the T/C (endpoint: mean survival time, dose: 150.0 mg/kg/injection, schedule: Q01DX001 (ip), vehicle: other) was 103 % of control and the T/C (endpoint: mean survival time, dose: 300.0 mg/kg/injection, schedule: Q01DX001 (ip), vehicle: other) was 91 % of control.

`CC1C=CC(C(=O)Nc2ccc(Cl)c(Cl)c2)N1C` (centres undefined) was tested, and the T/C [7] was 92 % of control.

With `COC1OC(COC(c2ccccc2)(c2ccccc2)c2ccccc2)C(O)C(O)C1O` (centres undefined) the T/C [1] was 100 % of control, the T/C [8] was 106 % of control and the T/C [2] was 97 % of control. For the same compound, the T/C [9] was 96 % of control, the T/C [3] was 92 % of control and the T/C [10] was 98 % of control.

In the case of `Cc1cc(C)c(C(=O)c2ccc(-c3ccccc3)cc2)c(C)c1`, the T/C [8] is reported as 95 % of control, the T/C [11] is reported as 98 % of control and the T/C [9] is reported as 98 % of control. The T/C [7] was 106 % of control, the T/C [10] was 91 % of control and the T/C [12] was 98 % of control.

With `OCC(Cl)(Cl)Cl` the T/C [11] was 93 % of control, the T/C [7] was 97 % of control and the T/C [12] was 101 % of control.

With `CCCCCCCCCCCC[N+]1([O-])CCOCC1` the T/C (endpoint: mean survival time, dose: 25.0 mg/kg/injection, schedule: Q04DX002 (ip), vehicle: saline with Tween-80) was 101 % of control, the T/C [4] was 97 % of control and the T/C [5] was 108 % of control.

For `Cc1n(Cc2ccc(Cl)cc2Cl)cc[n+]1Cc1ccccc1`, the T/C (endpoint: mean survival time, dose: 10.0 mg/kg/injection, schedule: Q04DX003 (ip), vehicle: Klucel (hydroxypropylcellulose) (HPC)) was 100 % of control, the T/C (endpoint: mean survival time, dose: 20.0 mg/kg/injection, schedule: Q04DX003 (ip), vehicle: Klucel (hydroxypropylcellulose) (HPC)) was 105 % of control and the T/C (endpoint: mean survival time, dose: 40.0 mg/kg/injection, schedule: Q04DX003 (ip), vehicle: Klucel (hydroxypropylcellulose) (HPC)) was 92 % of control.

In the case of `N#CC1(NC(=O)N(CCCl)N=O)CCCCC1`, the T/C (endpoint: mean survival time, dose: 6.25 mg/kg/injection, schedule: Q01DX001 (ip), vehicle: distilled water + Tween-80) is reported as 119 % of control and 108 % of control, the T/C (endpoint: mean survival time, dose: 25.0 mg/kg/injection, schedule: Q01DX001 (ip), vehicle: distilled water + Tween-80) is reported as 150 % of control and the T/C (endpoint: mean survival time, dose: 50.0 mg/kg/injection, schedule: Q01DX001 (ip), vehicle: distilled water + Tween-80) is reported as 172 % of control and 258 % of control.

In the case of `COC(=O)c1ccccc1Cn1c(C)cnc1C`, the T/C (endpoint: mean survival time, dose: 12.5 mg/kg/injection, schedule: Q01DX009 (ip), vehicle: saline) is reported as 101 % of control, the T/C (endpoint: mean survival time, dose: 25.0 mg/kg/injection, schedule: Q01DX009 (ip), vehicle: saline) is reported as 93 % of control and the T/C (endpoint: mean survival time, dose: 50.0 mg/kg/injection, schedule: Q01DX009 (ip), vehicle: saline) is reported as 101 % of control and 105 % of control.

`O=c1[nH]cnc2c1ncn2CCCCCO` was tested, and the T/C [13] was 95 % of control, the T/C [5] was 97 % of control and the T/C [14] was 100 % of control. The T/C [6] was 102 % of control, the T/C [15] was 95 % of control and the T/C (endpoint: mean survival time, dose: 400.0 mg/kg/injection, schedule: Q04DX002 (ip), vehicle: saline with Tween-80) was 94 % of control.

`CCCCCCCCC(=O)c1c(OC)oc(/C=N/Nc2ccccc2)cc1=O` was tested, and the T/C (endpoint: mean survival time, dose: 4.7 mg/kg/injection, schedule: Q01DX009 (ip), vehicle: Klucel (hydroxypropylcellulose) (HPC)) was 103 % of control, the T/C (endpoint: mean survival time, dose: 9.38 mg/kg/injection, schedule: Q01DX009 (ip), vehicle: Klucel (hydroxypropylcellulose) (HPC)) was 103 % of control and the T/C (endpoint: mean survival time, dose: 18.75 mg/kg/injection, schedule: Q01DX009 (ip), vehicle: Klucel (hydroxypropylcellulose) (HPC)) was 103 % of control. For the same compound, the T/C (endpoint: mean survival time, dose: 37.5 mg/kg/injection, schedule: Q01DX009 (ip), vehicle: Klucel (hydroxypropylcellulose) (HPC)) was 98 % of control and the T/C (endpoint: mean survival time, dose: 75.0 mg/kg/injection, schedule: Q01DX009 (ip), vehicle: Klucel (hydroxypropylcellulose) (HPC)) was 92 % of control.

`O=C(COc1ccc(Cl)c(Cl)c1)NCc1cccc(NC(=O)c2ccc(S(=O)(=O)F)cc2)c1` was tested, and the T/C [13] was 87 % of control, the T/C [14] was 86 % of control and the T/C [15] was 89 % of control.

For `O=S(=O)(O)c1cc(O)ccc1O.O=S(=O)(O)c1cc(O)ccc1O.[NH-]C1CCCCC1[NH-].[Pt+2]`, the T/C (endpoint: median survival time, dose: 6.25 mg/kg/injection, schedule: Q04DX003 (ip), vehicle: saline) was 117 % of control, the T/C (endpoint: median survival time, dose: 12.5 mg/kg/injection, schedule: Q04DX003 (ip), vehicle: saline) was 123 % of control and the T/C (endpoint: median survival time, dose: 25.0 mg/kg/injection, schedule: Q04DX003 (ip), vehicle: saline) was 162 % of control. For the same compound, the T/C (endpoint: median survival time, dose: 50.0 mg/kg/injection, schedule: Q04DX003 (ip), vehicle: saline) was 150 % of control and 337 % of control and the T/C (endpoint: median survival time, dose: 100.0 mg/kg/injection, schedule: Q04DX003 (ip), vehicle: saline) was 235 % of control and 375 % of control.

`S=c1[nH]c2ccccc2[nH]c1=S` was tested, and the T/C (endpoint: mean survival time, dose: 10.0 mg/kg/injection, schedule: Q01DX001 (ip), vehicle: Klucel (hydroxypropylcellulose) (HPC)) was 103 % of control and the T/C (endpoint: mean survival time, dose: 20.0 mg/kg/injection, schedule: Q01DX001 (ip), vehicle: Klucel (hydroxypropylcellulose) (HPC)) was 108 % of control.

With `C1CCC2OCCOCCOC3CCCCC3OCCOCCOC2C1` (centres undefined) the T/C (endpoint: mean survival time, dose: 3.12 mg/kg/injection, schedule: Q01DX009 (ip), vehicle: Klucel (hydroxypropylcellulose) (HPC)) was 108 % of control, the T/C (endpoint: mean survival time, dose: 6.25 mg/kg/injection, schedule: Q01DX009 (ip), vehicle: Klucel (hydroxypropylcellulose) (HPC)) was 98 % of control and 103 % of control and the T/C (endpoint: mean survival time, dose: 12.5 mg/kg/injection, schedule: Q01DX009 (ip), vehicle: Klucel (hydroxypropylcellulose) (HPC)) was 87 % of control and 100 % of control. The T/C (endpoint: mean survival time, dose: 25.0 mg/kg/injection, schedule: Q01DX009 (ip), vehicle: Klucel (hydroxypropylcellulose) (HPC)) was 102 % of control and 103 % of control, the T/C (endpoint: mean survival time, dose: 50.0 mg/kg/injection, schedule: Q01DX009 (ip), vehicle: Klucel (hydroxypropylcellulose) (HPC)) was 100 % of control and 104 % of control and the T/C (endpoint: mean survival time, dose: 100.0 mg/kg/injection, schedule: Q01DX009 (ip), vehicle: Klucel (hydroxypropylcellulose) (HPC)) was 91 % of control.

In the case of `O=S1OCC2(CO1)COS(=O)OC2` (centres undefined), the T/C (endpoint: mean survival time, dose: 3.13 mg/kg/injection, schedule: Q01DX001 (ip), vehicle: saline with Tween-80) is reported as 108 % of control and the T/C (endpoint: mean survival time, dose: 6.25 mg/kg/injection, schedule: Q01DX001 (ip), vehicle: saline with Tween-80) is reported as 100 % of control.

With `OCCCl` the T/C (endpoint: mean survival time, dose: 75.0 mg/kg/injection, schedule: Q01DX001 (ip), vehicle: saline) was 104 % of control and the T/C (endpoint: mean survival time, dose: 150.0 mg/kg/injection, schedule: Q01DX001 (ip), vehicle: saline) was 103 % of control.
